# Organism: Rattus norvegicus
# Experiment: DrugMatrix - Regimen: Daily Repeat
# Assay type: toxicity, organism-based, Sprague-Dawley
# Design: regimen Daily Repeat, gender Male, age 6-8 weeks
# Details: in vivo, po, 3 mg/kg, route oral GAVAGE, dose level Low, vehicle .5 % CMC; for ABSOLUTE BASOPHIL / ABSOLUTE EOSINOPHIL / ABSOLUTE LYMPHOCYTE / ABSOLUTE MONOCYTE / ABSOLUTE SEGMENTED NEUTROPHIL / BASOPHIL / EOSINOPHIL / ERYTHROCYTE COUNT / HEMATOCRIT / HEMOGLOBIN / LEUKOCYTE COUNT / LYMPHOCYTE / MEAN CORPUSCULAR HEMOGLOBIN / MEAN CORPUSCULAR HEMOGLOBIN CONCENTRATION / MEAN CORPUSCULAR VOLUME / MONOCYTE / NEUTROPHIL / NUCLEATED RED BLOOD CELLS / PLATELET COUNT: tissue Blood; for ALANINE AMINOTRANSFERASE / ALBUMIN / ALKALINE PHOSPHATASE / ASPARTATE AMINOTRANSFERASE / BLOOD UREA NITROGEN / CARBON DIOXIDE / CHLORIDE / CHOLESTEROL / CREATINE PHOSPHOKINASE / CREATININE / GLUCOSE / LACTATE DEHYDROGENASE / LIPASE / PHOSPHORUS / POTASSIUM / SODIUM / TOTAL BILIRUBIN / TOTAL PROTEIN / URIC ACID: tissue Plasma
structure (smiles),measurement,setting,value
C=CC[C@@H]1/C=C(\C)C[C@H](C)C[C@H](OC)[C@H]2O[C@@](O)(C(=O)C(=O)N3CCCC[C@H]3C(=O)O[C@H](/C(C)=C/[C@@H]3CC[C@@H](O)[C@H](OC)C3)[C@H](C)[C@@H](O)CC1=O)[C@H](C)C[C@@H]2OC [TACROLIMUS ANHYDROUS],ABSOLUTE BASOPHIL,"72 h, time 3 day",0 CELLS/uL
same,ABSOLUTE EOSINOPHIL,"72 h, time 3 day",115.33 CELLS/uL
same,ABSOLUTE LYMPHOCYTE,"72 h, time 3 day",12942.67 CELLS/uL
same,ABSOLUTE MONOCYTE,"72 h, time 3 day",191 CELLS/uL
same,ABSOLUTE SEGMENTED NEUTROPHIL,"72 h, time 3 day",1684.33 CELLS/uL
same,BASOPHIL,"72 h, time 3 day",0%
same,EOSINOPHIL,"72 h, time 3 day",0.67%
same,ERYTHROCYTE COUNT,"72 h, time 3 day",5.73 x10E6/uL
same,HEMATOCRIT,"72 h, time 3 day",36.53%
same,HEMOGLOBIN,"72 h, time 3 day",13.97 G/DL
same,LEUKOCYTE COUNT,"72 h, time 3 day",14.93 x10E3/uL
same,LYMPHOCYTE,"72 h, time 3 day",86.67%
same,MEAN CORPUSCULAR HEMOGLOBIN,"72 h, time 3 day",24.37 pg
same,MEAN CORPUSCULAR HEMOGLOBIN CONCENTRATION,"72 h, time 3 day",38.27 G/DL
same,MEAN CORPUSCULAR VOLUME,"72 h, time 3 day",63.77 fL
same,MONOCYTE,"72 h, time 3 day",1.33%
same,NEUTROPHIL,"72 h, time 3 day",11.33%
same,NUCLEATED RED BLOOD CELLS,"72 h, time 3 day",0 /100WBC
same,PLATELET COUNT,"72 h, time 3 day",1252.33 x10E3/uL
same,ALANINE AMINOTRANSFERASE,"72 h, time 3 day",50.67 u/L
same,ALBUMIN,"72 h, time 3 day",4.1 G/DL
same,ALKALINE PHOSPHATASE,"72 h, time 3 day",348.33 u/L
same,ASPARTATE AMINOTRANSFERASE,"72 h, time 3 day",75.67 u/L
same,BLOOD UREA NITROGEN,"72 h, time 3 day",16.33 mg/dL
same,CARBON DIOXIDE,"72 h, time 3 day",31.67 mmol/L
same,CHLORIDE,"72 h, time 3 day",99.33 MEQ/L
same,CHOLESTEROL,"72 h, time 3 day",79 mg/dL
same,CREATINE PHOSPHOKINASE,"72 h, time 3 day",194.33 u/L
same,CREATININE,"72 h, time 3 day",0.26 mg/dL
same,GLUCOSE,"72 h, time 3 day",149.33 mg/dL
same,LACTATE DEHYDROGENASE,"72 h, time 3 day",133.33 u/L
same,LIPASE,"72 h, time 3 day",9.33 u/L
same,PHOSPHORUS,"72 h, time 3 day",12.63 mg/dL
same,POTASSIUM,"72 h, time 3 day",6.77 MEQ/L
same,SODIUM,"72 h, time 3 day",144.97 MEQ/L
same,TOTAL BILIRUBIN,"72 h, time 3 day",0.2 mg/dL
same,TOTAL PROTEIN,"72 h, time 3 day",5.83 G/DL
same,URIC ACID,"72 h, time 3 day",1.67 mg/dL
same,ABSOLUTE BASOPHIL,"120 h, time 5 day",0 CELLS/uL
same,ABSOLUTE EOSINOPHIL,"120 h, time 5 day",0 CELLS/uL
same,ABSOLUTE LYMPHOCYTE,"120 h, time 5 day",15415.33 CELLS/uL
same,ABSOLUTE MONOCYTE,"120 h, time 5 day",188 CELLS/uL
same,ABSOLUTE SEGMENTED NEUTROPHIL,"120 h, time 5 day",1663.33 CELLS/uL
same,BASOPHIL,"120 h, time 5 day",0%
same,EOSINOPHIL,"120 h, time 5 day",0%
same,ERYTHROCYTE COUNT,"120 h, time 5 day",5.95 x10E6/uL
same,HEMATOCRIT,"120 h, time 5 day",36.57%
same,HEMOGLOBIN,"120 h, time 5 day",14.1 G/DL
same,LEUKOCYTE COUNT,"120 h, time 5 day",17.27 x10E3/uL
same,LYMPHOCYTE,"120 h, time 5 day",89.33%
same,MEAN CORPUSCULAR HEMOGLOBIN,"120 h, time 5 day",23.77 pg
same,MEAN CORPUSCULAR HEMOGLOBIN CONCENTRATION,"120 h, time 5 day",38.57 G/DL
same,MEAN CORPUSCULAR VOLUME,"120 h, time 5 day",61.53 fL
same,MONOCYTE,"120 h, time 5 day",1%
same,NEUTROPHIL,"120 h, time 5 day",9.67%
same,NUCLEATED RED BLOOD CELLS,"120 h, time 5 day",0 /100WBC
same,PLATELET COUNT,"120 h, time 5 day",1336 x10E3/uL
same,ALANINE AMINOTRANSFERASE,"120 h, time 5 day",51.33 u/L
same,ALBUMIN,"120 h, time 5 day",4.23 G/DL
same,ALKALINE PHOSPHATASE,"120 h, time 5 day",303 u/L
same,ASPARTATE AMINOTRANSFERASE,"120 h, time 5 day",80 u/L
same,BLOOD UREA NITROGEN,"120 h, time 5 day",17 mg/dL
same,CARBON DIOXIDE,"120 h, time 5 day",27.67 mmol/L
same,CHLORIDE,"120 h, time 5 day",101.67 MEQ/L
same,CHOLESTEROL,"120 h, time 5 day",81 mg/dL
same,CREATINE PHOSPHOKINASE,"120 h, time 5 day",231 u/L
same,CREATININE,"120 h, time 5 day",0.2 mg/dL
same,GLUCOSE,"120 h, time 5 day",164 mg/dL
same,LACTATE DEHYDROGENASE,"120 h, time 5 day",171.67 u/L
same,LIPASE,"120 h, time 5 day",9.33 u/L
same,PHOSPHORUS,"120 h, time 5 day",13.2 mg/dL
same,POTASSIUM,"120 h, time 5 day",6.36 MEQ/L
same,SODIUM,"120 h, time 5 day",144.37 MEQ/L
same,TOTAL BILIRUBIN,"120 h, time 5 day",0.2 mg/dL
same,TOTAL PROTEIN,"120 h, time 5 day",6.13 G/DL
same,URIC ACID,"120 h, time 5 day",1.73 mg/dL
